Reference: ChEMBL document CHEMBL6134907, “Synthesis of 5,9- and 5,8-Diaminoalkoxy Substituted Benzophenanthridinone Analogues as Tyrosyl-DNA Phosphodiesterase 1 Inhibitors and Their Radiosensitizing Activity” (J Med Chem, 2025)
The source made the active and inactive calls. The calls are words filed in the database; no cut-off is given here.

Experiments:
[1] = AUC infinity in male Sprague-Dawley rat at 5 mg/kg, IG measured up to 24 hrs by LCMS-MS analysis; assay type: ADME, organism-based; conditions: in vivo, po
[2] = tested on: HCT-116; test: Induction of apoptosis in human HCT-116 cells assessed as early apoptotic cells at 5 uM measured after 24 hrs by FITC Annexin V/PI apoptosis detection assay (reference value: 0.26%); assay type: functional
[3] = tested on: HCT-116; test: Effect on Ku70/80 expression in wild type human HCT-116 cells assessed as change in protein level at 5 to 10 uM radiated with 4 GY ionizing radiation (IR) measured after 24 hrs by Western blot analysis; assay type: functional, cell-based; conditions: dose 5-10 µM
[4] = tested on: Tyrosyl-DNA phosphodiesterase 1/Deoxyribonucleic acid; test: Stabilization of TDP1/DNA complex in human HCT-116 cells at 100 uM by Cellular Thermal Shift Assay (CETSA); assay type: cell-based
[5] = Toxicity in BALB/c mouse xenografted with human HCT-116 cells assessed as change in body weight at 10 mg/kg, ip every day for 14 days; assay type: organism-based; conditions: in vivo, 336 h, time 14 day
[6] = tested on: HCT-116; test: Induction of apoptosis in human HCT-116 cells assessed as early apoptotic cells at 10 uM measured after 24 hrs by FITC Annexin V/PI apoptosis detection assay (reference value: 0.26%); assay type: functional
[7] = tested on: HCT-116; test: Induction of 4GY ionizing radiation (IR) induced apoptosis in human HCT-116 cells measured after 24 hrs by TUNEL staining based analysis; assay type: functional, cell-based; conditions: dose 5-10 µM
[8] = Induction of 4GY ionizing radiation (IR) induced cell cycle arrest in human HCT-116 cells assessed as accumulation of cells at G0/G1 phase at 10 uM measured after 24 hrs by Propidium iodide (PI) staining based assay (reference value: 65.99%); assay type: functional
[9] = tested on: HCT-116; test: Induction of cell cycle arrest in human HCT-116 cells assessed as accumulation of cells at S phase at 5 uM measured after 24 hrs by Propidium iodide (PI) staining based assay (reference value: 13.96%); assay type: functional
[10] = tested on: HCT-116; test: Effect on Lig4 expression in wild type human HCT-116 cells assessed as change in protein level at 5 to 10 uM measured after 24 hrs by Western blot analysis; assay type: functional, cell-based; conditions: dose 5-10 µM
[11] = tested on: HCT-116; test: Induction of apoptosis in human HCT-116 cells assessed as viable cells at 10 uM measured after 24 hrs by FITC Annexin V/PI apoptosis detection assay (reference value: 99.71%); assay type: functional; conditions: read-out: Activity
[12] = Toxicity in BALB/c mouse xenografted with human HCT-116 cells assessed as change in liver weight at 1 to 10 mg/kg, ip every day for 14 days radiated for every 2 days once; assay type: organism-based; conditions: in vivo, 336 h, dose 1-10 mg/kg, time 14 day
[13] = tested on: HCT-116; test: Radiosensitizing activity in human HCT-116 cells assessed as induction of 2 GY ionizing radiation (IR) induced cell killing effect; assay type: functional, cell-based
[14] = Suppression of ionizing radiation (IR) induced DNA damage in human SgTDP1-HCT-116 cells (TDP1 knockout) assessed as NHEJ repair activity by measuring GFP positive cells at 1 uM measured after 24 hrs by flow cytometry (reference value: 100%); assay type: functional
[15] = Oral bioavailability in male Sprague-Dawley rat at 5 mg/kg measured up to 24 hrs by LCMS-MS analysis; assay type: ADME, organism-based; conditions: in vivo
[16] = tested on: HCT-116; test: Induction of apoptosis in human HCT-116 cells assessed as induction of 4GY ionizing radiation (IR) induced cleaved Caspase-3 at 5 uM measured after 24 hrs by Western blot analysis; assay type: functional, cell-based
[17] = tested on: HCT-116; test: In vivo radiosensitizing activity in human HCT-116 cells xenografted in BALB/c mouse assessed as sensitization of 1 GY ionizing radiation induced tumor growth inhibition at 1 mg/kg, ip every day for 14 days radiated for every 2 days once; assay type: functional, organism-based; conditions: time 14.0 day
[18] = tested on: HCT-116; test: Induction of apoptosis in human HCT-116 cells assessed as viable cells at 5 uM measured after 24 hrs by FITC Annexin V/PI apoptosis detection assay (reference value: 99.71%); assay type: functional; conditions: read-out: Activity
[19] = Tmax in male Sprague-Dawley rat at 1 mg/kg, iv measured up to 24 hrs by LCMS-MS analysis; assay type: ADME, organism-based; conditions: in vivo
[20] = tested on: HCT-116; test: Induction of cell cycle arrest in human HCT-116 cells assessed as accumulation of cells at S phase at 10 uM measured after 24 hrs by Propidium iodide (PI) staining based assay (reference value: 13.96%); assay type: functional
[21] = tested on: HCT-116; test: Anti-tumor activity against human HCT-116 cells xenografted in BALB/c mouse assessed as tumor growth inhibition at 1 mg/kg, ip every day for 14 days; assay type: functional, organism-based; conditions: time 14.0 day
[22] = tested on: HCT-116; test: Induction of apoptosis in human HCT-116 cells assessed as induction of 4GY ionizing radiation (IR) induced cleaved Caspase-7 at 5 uM measured after 24 hrs by Western blot analysis; assay type: functional, cell-based
[23] = Induction of 4GY ionizing radiation (IR) induced cell cycle arrest in human HCT-116 cells assessed as accumulation of cells at G0/G1 phase at 5 uM measured after 24 hrs by Propidium iodide (PI) staining based assay (reference value: 65.99%); assay type: functional
[24] = biological target: Tyrosyl-DNA phosphodiesterase 1 (Homo sapiens, UniProt Q9NUW8); test: Binding affinity to TDP1 in human HCT-116 cells assessed as increase in thermal stability by Cellular Thermal Shift Assay (CETSA); assay type: cell-based
[25] = tested on: A549; test: Radiosensitizing activity in human A549 cells assessed as sensitization of 2 GY ionizing radiation induced decrease in cell survival by colony formation assay; assay type: functional, cell-based
[26] = tested on: HCT-116; test: Induction of 4GY ionizing radiation (IR) induced apoptosis in human HCT-116 cells assessed as viable cells at 5 uM measured after 24 hrs by FITC Annexin V/PI apoptosis detection assay (reference value: 66.88%); assay type: functional; conditions: read-out: Activity
[27] = Toxicity in BALB/c mouse xenografted with human HCT-116 cells assessed as change in kidney weight at 1 to 10 mg/kg, ip every day for 14 days; assay type: organism-based; conditions: in vivo, 336 h, dose 1-10 mg/kg, time 14 day
[28] = tested on: SW480; test: Synergistic cytotoxicity against human SW480 cells assessed as combination index at 5 uM incubated for 48 hrs in presence of 2GY ionizing radiation (IR); assay type: functional
[29] = tested on: HCT-116; test: Effect on Lig4 expression in wild type human HCT-116 cells assessed as change in mRNA level at 5 to 10 uM measured after 24 hrs by qRT-PCR analysis; assay type: functional, cell-based; conditions: dose 5-10 µM
[30] = tested on: HCT-116; test: Reduction of XRCC4 expression in wild type human HCT-116 cells assessed as reduction in protein level at 5 to 10 uM measured after 24 hrs by Western blot analysis; assay type: functional, cell-based; conditions: dose 5-10 µM
[31] = Cmax in male Sprague-Dawley rat at 1 mg/kg, iv measured up to 24 hrs by LCMS-MS analysis; assay type: ADME, organism-based; conditions: in vivo
[32] = tested on: HCT-116; test: Suppression of ionizing radiation (IR) induced DNA damage in human wild type HCT-116 cells assessed as HR repair activity by measuring GFP positive cells at 1 uM measured after 24 hrs by flow cytometry; assay type: functional, cell-based
[33] = tested on: HCT-116; test: Induction of cell cycle arrest in human HCT-116 cells assessed as accumulation of cells at G2/M phase at 10 uM measured after 24 hrs by Propidium iodide (PI) staining based assay (reference value: 15.77%); assay type: functional

Chain of Tyrosyl-DNA phosphodiesterase 1 (Q9NUW8 whole entry): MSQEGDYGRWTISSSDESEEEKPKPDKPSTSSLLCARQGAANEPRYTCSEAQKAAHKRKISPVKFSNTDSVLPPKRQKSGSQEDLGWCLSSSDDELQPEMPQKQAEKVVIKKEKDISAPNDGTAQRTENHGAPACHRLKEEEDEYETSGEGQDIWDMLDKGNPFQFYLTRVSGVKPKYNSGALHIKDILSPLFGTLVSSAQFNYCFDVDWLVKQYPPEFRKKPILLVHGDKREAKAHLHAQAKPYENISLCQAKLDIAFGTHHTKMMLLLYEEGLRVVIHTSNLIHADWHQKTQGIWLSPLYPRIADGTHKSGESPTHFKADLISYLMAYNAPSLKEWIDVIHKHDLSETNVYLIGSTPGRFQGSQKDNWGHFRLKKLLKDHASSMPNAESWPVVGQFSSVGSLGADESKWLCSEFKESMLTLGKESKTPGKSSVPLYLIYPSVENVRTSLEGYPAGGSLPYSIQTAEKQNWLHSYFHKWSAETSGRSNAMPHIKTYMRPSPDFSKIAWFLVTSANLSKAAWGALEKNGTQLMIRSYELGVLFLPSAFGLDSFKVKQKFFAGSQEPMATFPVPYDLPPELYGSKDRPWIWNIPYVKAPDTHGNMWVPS

SMILES: COc1cc2c(=O)n(CCN(C)C)c3c4cc5c(cc4ccc3c2cc1OCCN1CCOCC1)OCO5
- AUC(0-inf) [1]: 735 ng·h/mL
- Activity [2]: 14.89%
- Activity [3]: inactive
- Activity [4]: Active; Coincubation With Ionizing Radiation Showed Greater Complex Formation
- Activity [5]: Non-toxic
- Activity [6]: 13.24%
- Activity [7]: Dose-dependent-effect
- Activity [8]: 20.79%
- Activity [9]: 10.9%
- Activity [10]: inactive
- viability at 10 µM [11]: 72.1%
- Activity [12]: Non-toxic
- Activity [13]: Active
- Activity [14]: 7%
- bioavailability [15]: 63.1%
- Activity [16]: Active
- TGI [17]: Active
- viability at 5 µM [18]: 78.2%
- Tmax [19]: 4.98 min
- Activity [20]: 10.2%
- TGI [21]: inactive
- Activity [22]: Active
- Activity [23]: 44.18%
- Activity [24]: Active; Thermal Melting Curve Of Tdp1 Protein Shifted Left
- Activity [25]: inactive
- viability at 5 µM [26]: 61.3%
- Activity [27]: Non-toxic
- CI [28]: <0.3
- Activity [29]: inactive
- Activity [30]: Active
- Cmax [31]: 221 ng/mL
- Activity [32]: inactive
- Activity [33]: 25.64%
